How the values were obtained:
Assay in all cases: normalised response (% of control), CellTiter-Glo; higher = more viable cells (100 = DMSO, 0 = benzethonium chloride kill control)
Conditions in all cases: incubation time: 72 h
BT-474 = test system: BT-474
Method in brief: (§1)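 Each value is the plate-normalised signal at one concentration of the series. Breast cancer cell lines (20 µl suspension) were incubated 72 h in 384-well plates with compound at 5 concentrations in 10-fold steps over a compound-specific 10,000-fold range. CellTox Green and then CellTiter-Glo were read, and each plate was scaled to 0.1 % DMSO (100) and a positive kill control (0).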

BT-549 = test system: BT-549
Method in brief: as §1

CAL-120 = test system: CAL-120
Method in brief: as §1

CAL-148 = test system: CAL-148
Method in brief: as §1

CAL-51 = test system: CAL-51
Method in brief: as §1

CAL-85-1 = test system: CAL-85-1
Method in brief: as §1

DU-4475 = test system: DU-4475
Method in brief: as §1

HCC1143 = test system: HCC1143
Method in brief: as §1

HCC1599 = test system: HCC1599
Method in brief: as §1

HCC1937 = test system: HCC1937
Method in brief: as §1

HDQ-P1 = test system: HDQ-P1
Method in brief: as §1

Hs578T = test system: Hs578T
Method in brief: as §1

MCF-10A = test system: MCF-10A
Method in brief: as §1

MDA-MB-231 = test system: MDA-MB-231
Method in brief: as §1

MDA-MB-436 = test system: MDA-MB-436
Method in brief: as §1

MDA-MB-453 = test system: MDA-MB-453
Method in brief: as §1

MDA-MB-468 = test system: MDA-MB-468
Method in brief: as §1

MFM-223 = test system: MFM-223
Method in brief: as §1

SK-BR-3 = test system: SK-BR-3
Method in brief: as §1

Structure (SMILES) | normalised response (BT-474) [%] | normalised response (BT-549) [%] | normalised response (CAL-120) [%] | normalised response (CAL-148) [%] | normalised response (CAL-51) [%] | normalised response (CAL-85-1) [%] | normalised response (DU-4475) [%] | normalised response (HCC1143) [%] | normalised response (HCC1599) [%] | normalised response (HCC1937) [%] | normalised response (HDQ-P1) [%] | normalised response (Hs578T) [%] | normalised response (MCF-10A) [%] | normalised response (MDA-MB-231) [%] | normalised response (MDA-MB-436) [%] | normalised response (MDA-MB-453) [%] | normalised response (MDA-MB-468) [%] | normalised response (MFM-223) [%] | normalised response (SK-BR-3) [%]
C=CC[C@@H]1/C=C(\C)C[C@H](C)C[C@H](OC)[C@H]2O[C@@](O)(C(=O)C(=O)N3CCCC[C@H]3C(=O)O[C@H](/C(C)=C/[C@@H]3CC[C@@H](O)[C@H](OC)C3)[C@H](C)[C@@H](O)CC1=O)[C@H](C)C[C@@H]2OC [Tacrolimus] (10 nM) | 105 | 101 | 97.7 | 97.4 | 110 | 99 | 105 | 103 | 102 | 100 | 100 | 103 | 103 | 100 | 106 | 109 | 97.6 | 98.8 | 119
S=c1[nH]cnc2nc[nH]c12 [Mercaptopurine] (10 nM) | 98.6 | 97.7 | 98.5 | 83.4 | 119 | 94.5 | 98.5 | 106 | 89.8 | 93.1 | 97.1 | 100 | 103 | 96 | 98 | 93 | 94.3 | 97.2 | 109
CO[C@H]1C[C@@H]2CC[C@@H](C)[C@@](O)(O2)C(=O)C(=O)N2CCCC[C@H]2C(=O)O[C@H]([C@H](C)C[C@@H]2CC[C@@H](OC(=O)C(C)(CO)CO)[C@H](OC)C2)CC(=O)[C@H](C)/C=C(\C)[C@@H](O)[C@@H](OC)C(=O)[C@H](C)C[C@H](C)/C=C/C=C/C=C/1C [Temsirolimus] (0.01 nM) | 103 | 98.3 | 99.6 | 110 | 115 | 106 | 103 | 98.1 | 97 | 97.1 | 105 | 96.7 | 101 | 101 | 99.7 | 108 | 106 | 101 | 101
COc1cccc2cc(-c3nc([C@H]4CC[C@H](C(=O)O)CC4)n4ncnc(N)c34)[nH]c12 [OSI-027] (10 nM) | 101 | 93.8 | 101 | 88.7 | 82.7 | 90.7 | 97.1 | 96.6 | 92.7 | 94.2 | 100 | 97.7 | 98.8 | 96 | 93.8 | 94.3 | 94.6 | 93 | 77.3
CCN1CCN(c2ccc(Nc3cc(N(C)C(=O)Nc4c(Cl)c(OC)cc(OC)c4Cl)ncn3)cc2)CC1 [NVP-BGJ398] (1 nM) | 94.9 | 96 | 97.2 | 96.1 | 118 | 98.3 | 99 | 98.8 | 88.4 | 104 | 101 | 103 | 108 | 95.8 | 97.7 | 97.7 | 100 | 97.1 | 108
CC[C@]1(O)C[C@@H]2CN(CCc3c([nH]c4ccccc34)[C@@](C(=O)OC)(c3cc4c(cc3OC)N(C)[C@H]3[C@@](O)(C(=O)OC)[C@H](OC(C)=O)[C@]5(CC)C=CCN6CC[C@]43[C@@H]65)C2)C1 [Vinblastine] (1 nM) | 100 | 87.8 | 95 | 98.8 | 101 | 93 | 96.9 | 97.1 | 101 | 94.9 | 101 | 102 | 103 | 94.7 | 90.7 | 97.2 | 97.9 | 97.6 | 94.7
CN1CCC(COc2cnc(-c3cccc(Cn4nc(-c5cccc(C#N)c5)ccc4=O)c3)nc2)CC1 (0.1 nM) | 98.2 | 95.1 | 96.1 | 103 | 82.4 | 92.8 | 93.1 | 94.6 | 92.2 | 94.5 | 99.1 | 96.4 | 89.1 | 98.5 | 81.1 | 105 | 96.9 | 94.2 | 84.6

Reference: the supplement of paper PMC4862054
